In PubChem BioAssay (NCI):
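Exposure lasted 48 hours, with cells grown in 96-well plates and compounds tested at five concentrations. TGI marks complete inhibition of growth.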

Tests used:
Assay in all cases: NCI anticancer screen, dose series, 48 h
PC-3 prostate = system: PC-3 prostate
CCRF-CEM leukemia = system: CCRF-CEM leukemia
K-562 leukemia = system: K-562 leukemia
SF-268 CNS = system: SF-268 CNS
SW-620 colon = system: SW-620 colon
UACC-62 melanoma = system: UACC-62 melanoma
SK-MEL-28 melanoma = system: SK-MEL-28 melanoma
SK-MEL-5 melanoma = system: SK-MEL-5 melanoma
HL-60(TB) leukemia = system: HL-60(TB) leukemia
UO-31 renal = system: UO-31 renal
SK-MEL-2 melanoma = system: SK-MEL-2 melanoma
COLO 205 colon = system: COLO 205 colon
HOP-92 NSCLC = system: HOP-92 NSCLC
UACC-257 melanoma = system: UACC-257 melanoma
BT-549 breast = system: BT-549 breast
NCI-H460 lung = system: NCI-H460 lung
T-47D breast = system: T-47D breast
NCI-H226 lung = system: NCI-H226 lung

Structure (SMILES)	TGI (PC-3 prostate) [µM]	TGI (CCRF-CEM leukemia) [µM]	TGI (K-562 leukemia) [µM]	TGI (SF-268 CNS) [µM]	TGI (SW-620 colon) [µM]	TGI (UACC-62 melanoma) [µM]	TGI (SK-MEL-28 melanoma) [µM]	TGI (SK-MEL-5 melanoma) [µM]	TGI (HL-60(TB) leukemia) [µM]	TGI (UO-31 renal) [µM]	TGI (SK-MEL-2 melanoma) [µM]	TGI (COLO 205 colon) [µM]	TGI (HOP-92 NSCLC) [µM]	TGI (UACC-257 melanoma) [µM]	TGI (BT-549 breast) [µM]	TGI (NCI-H460 lung) [µM]	TGI (T-47D breast) [µM]	TGI (NCI-H226 lung) [µM]
O=C(NCCNCCNCCNC(=O)c1cc(-c2ccccc2)nc2ccccc12)c1cc(-c2ccccc2)nc2ccccc12	14.1	> 20.5	4.12	10.1	3.31	3.97	3.08	2.88	3.85	18	3.08	4	7.81	3.17	21.9	3.4	7.66	7.38
NC1=CN(Cc2ccccc2)C2=N/C(=C\c3ccccc3)C(=O)N12	> 100	> 100	> 100	> 100	> 100	> 100	> 100	> 100	> 100	> 100	> 100	> 100	> 100	> 100	> 100	> 100	> 100	> 100
COc1ccc([C@H]2C=C(c3cc(F)c(Cl)cc3Cl)NC(=S)N2)cc1	65.7	> 100	> 100	> 100	> 100	> 100	> 100	27.2	35.7	> 100	58.4	48.6	> 100	76.2	> 100	54.3	> 100	> 100
COc1cc(S(=O)(=O)Nc2nc(-c3ccc(N)cc3)cs2)ccc1Cl	> 100	> 100	> 100	> 100	> 100	> 100	> 100	> 100	> 100	> 100	> 100	> 100	> 100	> 100	> 100	> 100	> 100	> 100
NNc1ccccc1Cl	> 100	> 100	> 100	> 100	> 100	> 100	> 100	> 100	> 100	> 100	> 100	> 100	> 100	> 100	> 100	> 100	> 100	> 100
NCCCCN(CCCN)Cc1ccccc1	> 100	> 100	> 100	> 100	> 100	> 100	> 100	> 100	> 100	> 100	> 100	> 100	> 100	> 100	> 100	> 100	> 100	> 100
N#Cc1c(N)c2c(c(-c3ccccc3)c1-c1ccccc1)C(=O)N(NC(=O)c1ccccc1)C2=O	> 100	> 100	> 100	> 100	> 100	> 100	> 100	> 100	> 100	> 100	> 100	> 100	> 100	> 100	> 100	> 100	> 100	> 100
COC(=O)n1c(=O)n(-c2ccccc2)c(=O)n1C(=O)Nc1ccccc1	> 100	> 100	> 100	> 100	> 100	> 100	> 100	> 100	> 100	> 100	> 100	> 100	> 100	> 100	> 100	> 100	> 100	> 100
C[C@]12CC[C@H](O)C=C1CC[C@@H]1[C@@H]2CC[C@]2(C)C(=N/O)/C(=C/c3ccncc3)C[C@@H]12	14.6	32.9	> 100	49.4	> 100	19.3	60.2	18	35.4	20.5	22.6	38.8	31.6	32.8	81.5	30.7	44.4	25.3
O=C1c2cscc2C(=O)C1(O)O	> 100	52.9	> 100	> 100	42.1	> 100	> 100	> 100	72.5	49.1	> 100	36.7	> 100	65.1	90.9	> 100	37.5	> 100
COc1cc(Br)cc2nc(-c3cccs3)oc12	> 100	> 100	> 100	> 100	> 100	> 100	> 100	> 100	> 100	> 100	> 100	> 100	> 100	> 100	> 100	> 100	> 100	> 100
O=C(O)c1nc2ccccc2nc1Nc1ccc(F)cc1	90.7	79.9	94.1	99.2	> 100	77.6	> 100	54.2	78.8	> 100	76.5	76.2	85.9	> 100	> 100	> 100	> 100	> 100
S=C(N/N=C(/c1ccccc1)c1ccccn1)Nc1ccc(Cl)cc1	10.3	2.26	0.581	15.5	11.1	7.65	11.8	8.1	0.543	9.37	4.91	18.2	11.9	2.43	9.94	5.53	2.89	7.54
